Earlier results on two substances are cited in US12686008B2, “Microfluidic device having specifically designed detection chambers” (Bifrost Biosystems Inc., priority 2020, dated 2026).

Where no end group is shown, it is not given here.

For this data set the following is noted: literature values, refs [18, 19]; test organism not given.

As to LL-37, the MIC is 1.5 µM.

Consider VDKPPYLPRPRPPRRIYNR-NH2 [Oncocin], for which the minimal inhibitory concentration (MIC) was 0.42 µM.

The term MIC denotes the smallest concentration in the dilution series that meets the test's criterion for growth inhibition.
